# In US6841720B1, “Inducible promoters” (Biogemma UK LTD, priority 1998, dated 2005):
# Read-outs that look alike come from different tables or passages of the source.
# What was measured:
# [1] = system: extracellular aPR-5 proteins; conditions: leaf discs, cited from earlier work
# [2] = system: AoPRT-L promoter-GUS fusion; assay: AoPRT-L promoter-GUS expression in transgenic tobacco (fluorimetric GUS assay); format: in vivo, Nicotiana tabacum (cv Samsun); conditions: for Time-dependent induction of AoPRT-L promoter-GUS fusion: treatment with 1 mM, time course; for AoPRT-L-promoter-GUS expression after infiltration of pro-oxidant: infiltrated into leaf panels, over the concentration range tested; for Induction of AoPRT-L promoter-GUS by wound signals: transgenic tobacco, summary statement; for Induction of AoPRT-L promoter-GUS fusion: root-fed 3 days, leaf cores
# Method: The AoPRT-L promoter construct (p22-GUS(INT) Bin 19) was transformed into Nicotiana tabacum (cv Samsun) using standard Agrobacterium tumefaciens-mediated transformation techniques (Draper et al., (1988): Plant Genetic Transformation and Gene Expression—A Laboratory Manual. Blackwell Scientific Publications, Oxford, UK). The expression of the GUS gene driven by the AoPRT-L promoter was analysed using assays described previously (Draper et al., (1988) supra).
# Plants were sprayed once, allowed to dry and then sprayed again on the same day (day 0). After 3 or 6 days leaf cores were taken and GUS activity was measured using a standard fluorimetric assay. […] Leaf cores from tobacco harbouring the AoPRT-L promoter fusion with GUS were floated for 3 or 6 days on water containing increasing concentrations of BTH after which time GUS activity in the leaf discs was measured fluorometrically.
# Wounding of tobacco leaves (using the hammer method) or infection of tobacco with Pseudomonas syringae pathovar phaseolicola induces local accumulation of the wound-related phytohormone jasmonic acid (JA) (Kenton et al., submitted; Mur et al., (1997) Trends in Microbiol 5:297-300). Leaf cores from tobacco harbouring the AoPRT-L promoter fusion with GUS were floated for 3 days on water containing increasing concentrations of JA after which time GUS activity in the leaf discs was measured using a standard fluorimetric assay. […]
# (§1) In order to test whether oxidative stress is likely to induce high levels of AoPRT-L promoter-driven gene expression, H2O2 was infiltrated into leaf panels of transgenic tobacco harbouring the AoPRT-L-promoter-GUS construct (FIG. 13a). […] However, H2O2 has a limited half-life (around 10 mins—Levine et al., (1994) Cell 79: 583-593) in the apoplast, thus the experiment was repeated using a stable peroxide, t-butyl-hydroperoxide (FIG. 13b).
# AoPRT-L-GUS = AoPRT-L-GUS expression in transgenic maize; format: in vivo, Zea mays; conditions: treated with SA or BTH
# From the text: Maize plants containing AoPRT-L-GUS were produced by biolistic transformation of callus material with pJIT60-P22 GUS int.
# AoPRT-Lx3 promoter-GUS = assay: pAoPRT-Lx3-GUS expression in transgenic tobacco; format: in vivo, samsun tobacco; conditions: on SA or BTH induction
# From the text: In order to construct an AoPRT-L promoter that has higher expression, the region −247 bp to −133 bp was amplified from p22-JIT60 and placed twice in front of a −247 bp AoPRT-L promoter. This AoPRT-Lx3 promoter was constructed as follows: The primers below were used to PCR the 0 bp to −247 bp AoPRT-L promoter from p22-JIT60.
# This fragment was cloned as a KpnI, XhoI fragment between the KpnI and SalI sites of the pUC19-derived plasmid forming pAoPRT-Lx2. The −133 bp to −247 bp pAoPRT-L fragment was then cloned as a KpnI, XhoI fragment between the KpnI and SalI sites of pAoPRT-Lx2 forming pAoPRT-Lx3 (FIG. 15c). Next the AoPRT-Lx3 promoter was cloned as an KpnI, PstI fragment into KpnI, PstI-cut p22-JIT60 forming pAoPRT-Lx3-JIT60. The pAoPRT-Lx3 was transferred from pAoPRT-L-x-JIT60 as a KpnI, BamHI fragment into KpnI, BamHI-cut p22-GUS (INT) JIT 60. Finally the resulting pAoPRT-Lx3 -GUS-CaMV poly A chimeric gene was cloned as KpnI, XhoI fragments into KpnI, SalI-cut pBin19 and transformed into samsun tobacco.
# [3] = system: pGB24 (pAoPRT-L-LhG4 / pOP-GUS); assay: pGB24 amplification construct GUS expression in tobacco; format: in vivo; conditions: on SA or BTH induction
# From the text: (§2) A way of increasing the activity of the AoPRT-L promoter whilst retaining tight regulation of the promoter is to use a system that will amplify expression of the AoPRT-L promoter. An amplification system was built using a transactivator (described in WO98/05789 and Moore et al., (1997) Proc. Natl. Acad. Sci. USA. 95, 379-381). The AoPRT-L promoter is linked to a synthetic transactivator (LhG4) and the target promoter of the transactivator (pOP) to the gene to be expressed. LhG4 consists of a mutated E. coli lacI gene fused to the transcriptional activator domain of the GALA from yeast. pOP910 is a minimal 35S CaMV promoter with two binding sites for the LhG4 protein. Since the transactivator can initiate multiple rounds of transcription from pOP, there is amplification of the initial signal that activated the AoPRT-L promoter.
# (§3) The amplification system was constructed by the following steps. The pOP910 promoter was excised from pX-910TAG (K. Palme, Max Planck Institut fur Zuchtungsforchung, Koln, Germany) as a SstI-NcoI fragment and cloned into SstI,NcoI-cut pDH68 (pDH68 consists of a Pea Plastocyanin promoter (Pwee and Gray (1993) Plant J. 3, 437-449) linked to an intron GUS gene (D. Twell, Leicester University) cloned between the SstI and EcoRI sites of the vector pJIT30 (Guerineau et al., (1990) Plant Mol. Biol. 15, 127-136)). […]
# [4] = system: pGB24 (pAoPRT-L-LhG4 / pOP-GUS); assay: pGB24 amplification construct GUS expression in B. napus; format: in vivo, B. napits; conditions: on SA or BTH induction
# From the text: as §2, §3
# PR-1a promoter-GUS = conditions: transgenic tobacco, cited from earlier work; for PR-1a promoter-GUS / endogenous PR-1a expression: direct application
# PR gene promoters = conditions: cited from earlier work
# tobacco leaf tissue = assay: Visible tissue damage in infiltrated transgenic tobacco leaf panels
# Method: as §1
# [5] = system: barley homologue of rice thaumatin-like protein; conditions: 1 ppm; cited from earlier work
# barley aPR5 = conditions: in vivo; cited from earlier work
# AoPRT-L mRNA = AoPRT-L mRNA accumulation in Asparagus (Northern hybridisation); format: in vivo, Asparagus officinalis; conditions: treated Asparagus
# From the text: In chopped etiolated A. officinalis seedlings (<=0.5 cm in length) the AoPRT-L transcript was detectable from 3 days after wounding (FIG. 3b).
smiles,measurement,setting,value
"O=C(O)COc1ccc(Cl)cc1Cl [2,4 D]",Induction of extracellular aPR-5 proteins,[1]; 10 mM,induced
"O=C(O)c1ccc(O)cc1 [4hBA, 4-hydroxybenzoic acid]",Time-dependent induction of AoPRT-L promoter-GUS fusion,[2],inactive
"CC1=CC(=O)CC(C)(C)[C@@]1(O)/C=C/C(C)=C\C(=O)O [ABA, abscisic acid]",Level of induction relative to that observed using SA,[2]; ABA induction vs SA,an order of magnitude lower
same,AoPRT-L-promoter-GUS in leaf discs,"[2]; high concentration of ABA, leaf discs",slight increase
"CSC(=O)c1cccc2nnsc12 [BTH, benzo(1,2,3)thiadiazole-7-carbothoic acid S-methyl ester]",BTH concentration at which BTH-induced GUS activity is observed,[2]; leaf cores floated 3 or 6 days,1.25 µM
same,Induction of AoPRT-L promoter-driven GUS expression by foliar spray,"[2]; sprayed twice on day 0, 20 μM BTH vs 1 mM SA, leaf cores after 3 or 6 days",as effective an inducer of GUS expression driven by the AoPRT-L promoter as was SA
same,GUS activity of AoPRT-L-GUS maize on treatment,AoPRT-L-GUS,exhibited GUS activity
same,GUS activity of pAoPRT-Lx3-GUS plants vs equivalent AoPRT-L-GUS plants,AoPRT-Lx3 promoter-GUS,significantly greater level of GUS activity
same,GUS activity of pGB24 plants vs equivalent AoPRT-L-GUS plants,[3],significantly greater level of GUS activity
same,GUS activity of pGB24 plants vs equivalent AoPRT-L-GUS plants,[4],significantly greater level of GUS activity
same,PR-1a promoter-GUS / endogenous PR-1a expression,PR-1a promoter-GUS,high levels
same,PR gene expression induced by commercial preparations,PR gene promoters; all plants tested including arabidopsis and wheat,very strong PR gene expression
same,Concentration sufficient to induce PR gene expression,PR gene promoters; aqueous solution,1.2 µM
same,Persistence of gene induction,PR gene promoters; spraying,at least 10 days
same,Time of maximal gene induction after application,PR gene promoters; spraying,2 days
"OO [H2O2, hydrogen peroxide]",AoPRT-L-promoter-GUS expression after infiltration of pro-oxidant,[2],failed to induce
same,Visible tissue damage after infiltration,tobacco leaf tissue; in vivo,no visible symptoms
[Cl][Hg][Cl] [HgCl3],Induction of extracellular aPR-5 proteins,[1]; 5 mM,induced
"O=C(O)c1cc(Cl)nc(Cl)c1 [INA, dichloroisonicotinic acid]",PR-1a promoter-GUS / endogenous PR-1a expression,PR-1a promoter-GUS,high levels
same,Expression of barley homologue of rice thaumatin-like protein,[5],induces expression
"CC/C=C\C[C@H]1C(=O)CC[C@@H]1CC(=O)O [JA, jasmonic acid]",Induction of AoPRT-L promoter-driven GUS activity in leaf discs,"[2]; leaf cores floated 3 days on increasing concentrations, compared with 1 mM SA",failed to induce any increase
same,Induction of AoPRT-L promoter-GUS by wound signals,[2],not induced
same,Expression of barley aPR5,barley aPR5,induces expression
[Cl][Mn][Cl] [MnCl2],Induction of extracellular aPR-5 proteins,[1]; 5 mM,induced
O=C(O)Cc1cccc2ccccc12 [NAA],Induction of extracellular aPR-5 proteins,[1]; 10 mM,induced
"O=C(O)c1ccccc1O [SA, salicylic acid]",Time after start of treatment at which induction is observable,[2]; 1 mM SA,1 days
same,GUS activity of AoPRT-L-GUS plants as fraction of that in pPR-1a-GUS-transformed tobacco,[2]; SA induction,about ⅓
same,Induction of AoPRT-L promoter-GUS fusion,[2]; 0.1 mM,little induction
same,Induction of AoPRT-L promoter-GUS fusion,[2]; 1 mM,Substantial induction
same,Time-dependent induction of AoPRT-L promoter-GUS fusion,[2],clear time-dependent induction
same,AoPRT-L mRNA accumulation,AoPRT-L mRNA,accumulation was observed
same,GUS activity of AoPRT-L-GUS maize on treatment,AoPRT-L-GUS,exhibited GUS activity
same,GUS activity of pAoPRT-Lx3-GUS plants vs equivalent AoPRT-L-GUS plants,AoPRT-Lx3 promoter-GUS,significantly greater level of GUS activity
same,GUS activity of pGB24 plants vs equivalent AoPRT-L-GUS plants,[3],significantly greater level of GUS activity
same,GUS activity of pGB24 plants vs equivalent AoPRT-L-GUS plants,[4],significantly greater level of GUS activity
same,PR-1a promoter-GUS / endogenous PR-1a expression,PR-1a promoter-GUS,high levels
same,SA concentration at which PR-1a-GUS is clearly induced,PR-1a promoter-GUS,10 to 100 µM
same,Induction of expression of PR gene promoters over basal levels,"PR gene promoters; spraying, injection or root-feeding",50-1000 fold
"CC(=O)Oc1ccccc1C(=O)O [aspirin, acetyl-SA]",Induction of extracellular aPR-5 proteins,[1]; 5 mM,induced
O=C(O)CC(O)(CC(=O)O)C(=O)O [citric acid],Induction of extracellular aPR-5 proteins,[1]; 5 mM,induced
O=P(O)(O)CCCl [ethephon],AoPRT-L mRNA accumulation,AoPRT-L mRNA,not induced
same,Induction of extracellular aPR-5 proteins,[1]; 10 mM,induced
C=C [ethylene],Induction of AoPRT-L promoter-GUS by wound signals,[2],not induced
O=C(O)C(=O)O [oxalic acid],Induction of extracellular aPR-5 proteins,[1]; 5 mM,induced
"[Cl-].[Na+] [salt, NaCl]",Induced expression of the AoPRT-L-promoter-GUS construct ('Neither ... induced'),[2]; in vivo,Neither
CC(C)(C)OO [t-butyl-hydroperoxide],AoPRT-L-promoter-GUS expression after infiltration of pro-oxidant,[2],no GUS expression was detected
same,Visible tissue damage after infiltration,"tobacco leaf tissue; leaf panels, higher concentrations for t-butyl-hydroperoxide",severe visible tissue damage
